Laboratory results taken from patent publication US20180028480A1, “METHODS OF REDUCING OR PREVENTING OXIDATIVE MODIFICATION OF MEMBRANE POLYUNSATURATED FATTY ACIDS” (Amarin Pharmaceuticals Ireland Limited, priority 2015, published 2018).

Experiment: LOOH formation in glucose-treated model membranes, EPA versus EA and ETE (Example 5)
Assay type: biochemical
Conditions: FIG. 8
Protocol: An experiment was conducted to compare the ability of EPA to prevent lipid hydroperoxide formation in model membranes treated with glucose to two other 20-carbon fatty acids: eicosanoic acid (“EA,” also referred to as arachidic acid, C20:0) and eicosatrienoic acid (“ETE,” C20:3, n-3). All MLV samples were subjected to time-dependent autoxidation by incubating at 37° C. in an uncovered, shaking water bath. This method allows lipid peroxidation to occur gradually without requiring the use of exogenous initiators. Small aliquots (5-100 μL) of each sample were removed, immediately following MLV preparation (0 hr) and after exposing samples to oxidative conditions for 72 or 96 hr, and combined with 1.0 mL of activated CHOD-iodide color reagent. Aliquot volume was reduced with each successive time point to ensure that spectrophotometric readings were within the optimal adsorption range. Test samples were covered and incubated in darkness at room temperature for at least 4 hr. Sample absorbances were then measured against a CHOD blank at 365 nm using a Beckman DU-640 spectrophotometer. The CHOD colorimetric assay is based on the oxidation of iodide (I^−) by lipid hydroperoxide (LOOH) to form triiodide (I3^−), the quantity of which is directly proportional to the amount of LOOH present in the lipid sample. The molar absorptivity (ε) of I3^− is 2.46×10^4 M^−1 cm^−1 at 365 nm.

**Q.** For `CC/C=C\C/C=C\C/C=C\C/C=C\C/C=C\CCCC(=O)O` [EPA, cis-5,8,11,14,17-Eicosapentaenoic acid], which “LOOH formation compared to vehicle, glucose, glucose and EA, glucose and ETE” value is on record?
**A.** Its value is “significantly less LOOH formation”.
